Test results: ChEMBL document CHEMBL3763146 (J Med Chem, 2016)

Key:
[1] = target: Beta-3 adrenergic receptor (Macaca mulatta) (UniProt Q28524); test: Agonist activity at rhesus monkey beta3 adrenergic receptor expressed in CHO cells assessed as accumulation of cAMP after 30 mins by TR-FRET assay relative to (R)-(-)-isoproterenol; format: functional, cell-based
[2] = target: Sodium channel protein type 2 subunit alpha (Homo sapiens, UniProt Q99250); test: Inhibition of human Nav1.2 channel expressed in Xenopus oocytes by two-intracellular microelectrode voltage clamp method; format: cell-based
[3] = target: Sodium-dependent serotonin transporter (Homo sapiens, UniProt P31645); test: Inhibition of human SERT expressed in HEK293 cells preincubated for 30 mins followed by fluorescent substrate addition measured after 30 mins by plate reader analysis; format: cell-based
[4] = Stability in rhesus monkey plasma assessed as parent compound remaining at 24 hrs by LC-MS analysis; format: ADME, cell-free, Macaca mulatta; conditions: read-out: Stability
[5] = Stability in human plasma assessed as parent compound remaining at 24 hrs by LC-MS analysis; format: ADME, cell-free; conditions: read-out: Stability
[6] = target: Beta-2 adrenergic receptor (Homo sapiens, UniProt P07550)
Description: Displacement of [125]I-cyanopindolol from human recombinant beta2 adrenergic receptor after 1 hr by scintillation counting method

[7] = target: Beta-3 adrenergic receptor (Rattus norvegicus) (UniProt P26255); test: Agonist activity at rat beta3 adrenergic receptor expressed in CHO cells assessed as accumulation of cAMP after 30 mins by TR-FRET assay in presence of 40% serum relative to (R)-(-)-isoproterenol; format: functional, cell-based
[8] = target: T1, Beta-3 adrenergic receptor (Homo sapiens, UniProt P13945); test: Agonist activity at human beta3 adrenergic receptor expressed in CHO cells assessed as accumulation of cAMP after 30 mins by TR-FRET assay relative to (R)-(-)-isoproterenol; format: functional, cell-based
Target sequence in this assay (P13945 whole entry, looked up): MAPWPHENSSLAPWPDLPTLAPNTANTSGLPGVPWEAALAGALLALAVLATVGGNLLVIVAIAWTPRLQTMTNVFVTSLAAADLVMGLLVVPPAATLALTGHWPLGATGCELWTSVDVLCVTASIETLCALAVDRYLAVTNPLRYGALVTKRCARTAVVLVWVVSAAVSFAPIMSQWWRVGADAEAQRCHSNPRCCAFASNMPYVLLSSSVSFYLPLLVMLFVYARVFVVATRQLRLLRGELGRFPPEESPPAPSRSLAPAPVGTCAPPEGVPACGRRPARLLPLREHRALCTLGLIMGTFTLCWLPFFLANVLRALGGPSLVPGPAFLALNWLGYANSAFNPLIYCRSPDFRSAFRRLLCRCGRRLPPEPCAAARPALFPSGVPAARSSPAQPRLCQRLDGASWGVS

Rhesus monkey [9] = test: Unbound clearance in rhesus monkey at 0.5 mg/kg, iv or 2 mg/kg, po; format: ADME, organism-based, Macaca mulatta; conditions: in vivo
[10] = target: Beta-3 adrenergic receptor (Rattus norvegicus) (UniProt P26255); test: Agonist activity at rat beta3 adrenergic receptor expressed in CHO cells assessed as accumulation of cAMP after 30 mins by TR-FRET assay relative to (R)-(-)-isoproterenol; format: functional, cell-based
Rattus norvegicus [11] = test: Unbound clearance in rat at 1 mg/kg, iv or 2 mg/kg, po; format: ADME, organism-based; conditions: in vivo
[12] = Fraction unbound in rat at 1 mg/kg, iv or 2 mg/kg, po; format: ADME, organism-based; conditions: in vivo
Cytochrome P450 2D6 = Cytochrome P450 2D6 (Homo sapiens, UniProt P10635); test: Inhibition of CYP2D6 in human liver microsomes assessed as dextraomethorphan O-demethylation; format: ADME
[13] = Half life in rat at 1 mg/kg, iv or 2 mg/kg, po; format: ADME, organism-based; conditions: in vivo
[14] = Plasma clearance in rhesus monkey at 0.5 mg/kg, iv or 2 mg/kg, po; format: ADME, organism-based, Macaca mulatta
[15] = Fraction unbound in rhesus monkey at 0.5 mg/kg, iv or 2 mg/kg, po; format: ADME, organism-based, Macaca mulatta; conditions: in vivo
[16] = target: Beta-1 adrenergic receptor (Homo sapiens, UniProt P08588)
Description: Displacement of [125]I-cyanopindolol from recombinant human beta1 adrenergic receptor after 1 hr by scintillation counting method

[17] = Intrinsic clearance in rhesus monkey liver microsomes; format: ADME, Macaca mulatta; conditions: read-out: CLH
[18] = target: Voltage-dependent L-type calcium channel subunit alpha-1C (Homo sapiens, UniProt Q13936); test: Displacement of [3H]-diltiazem from human Cav1.2 channel
[19] = Stability in rat plasma assessed as parent compound remaining at 24 hrs by LC-MS analysis; format: ADME, cell-free; conditions: read-out: Stability
Canis familiaris [20] = test: Dose normalized fAUC in dog at 2 mg/kg, po; format: ADME, organism-based, Canis lupus familiaris; conditions: in vivo
[21] = Half life in dog at 0.5 mg/kg, iv or 2 mg/kg, po; format: ADME, organism-based, Canis lupus familiaris; conditions: in vivo
[22] = target: T1, Beta-3 adrenergic receptor; test: Agonist activity at human beta3 adrenergic receptor expressed in CHO cells assessed as accumulation of cAMP after 30 mins by TR-FRET assay; format: functional, cell-based
Target sequence in this assay (P13945 whole entry): as the sequence (P13945 whole entry, looked up) above

[23] = Stability in dog plasma assessed as parent compound remaining at 24 hrs by LC-MS analysis; format: ADME, cell-free, Canis lupus familiaris; conditions: read-out: Stability
Canis familiaris [24] = test: Dose normalized total AUC in dog at 2 mg/kg, po; format: ADME, organism-based, Canis lupus familiaris; conditions: in vivo
[25] = Intrinsic clearance in dog liver microsomes; format: ADME, Canis lupus familiaris; conditions: read-out: CLH
Cytochrome P450 2C9 = Cytochrome P450 2C9 (Homo sapiens, UniProt P11712); test: Inhibition of CYP2C9 in human liver microsomes assessed as diclofenac alpha'-hydroxylation; format: ADME
Rattus norvegicus [26] = test: Dose normalized total AUC in rat at 2 mg/kg, po; format: ADME, organism-based; conditions: in vivo
[27] = target: T1, Beta-3 adrenergic receptor; test: Agonist activity at human adrenergic beta3 receptor expressed in CHO cells assessed as accumulation of cAMP after 30 mins by TR-FRET assay in presence of 40% serum; format: functional, cell-based
Target sequence in this assay (P13945 whole entry): as the sequence (P13945 whole entry, looked up) above

[28] = target: Beta-3 adrenergic receptor (Macaca mulatta, UniProt Q28524); test: Agonist activity at rhesus monkey beta3 adrenergic receptor expressed in CHO cells assessed as accumulation of cAMP after 30 mins by TR-FRET assay; format: functional, cell-based
[29] = Oral bioavailability in rat at 2 mg/kg; format: ADME, organism-based; conditions: in vivo
[30] = Fraction unbound in dog at 0.5 mg/kg, iv or 2 mg/kg, po; format: ADME, organism-based, Canis lupus familiaris; conditions: in vivo
Cytochrome P450 3A4 = Cytochrome P450 3A4 (Homo sapiens, UniProt P08684); test: Inhibition of CYP3A4 in human liver microsomes assessed as testosterone 6beta-hydroxylation; format: ADME
[31] = Plasma clearance in dog at 0.5 mg/kg, iv or 2 mg/kg, po; format: ADME, organism-based, Canis lupus familiaris
[32] = Intrinsic clearance in human liver microsomes; format: ADME; conditions: read-out: CLH
[33] = target: T2, Beta-3 adrenergic receptor (Rattus norvegicus, UniProt P26255); test: Agonist activity at rat beta3 adrenergic receptor expressed in CHO cells assessed as accumulation of cAMP after 30 mins by TR-FRET assay; format: functional, cell-based
[34] = Distribution coefficient, logD of the compound at pH 7.4; format: physicochemical; conditions: octanol/water
Rhesus monkey [35] = test: Dose normalized fAUC in rhesus monkey at 2 mg/kg, po; format: ADME, organism-based, Macaca mulatta; conditions: in vivo
[36] = Oral bioavailability in dog at 2 mg/kg; format: ADME, organism-based, Canis lupus familiaris; conditions: in vivo
Rattus norvegicus [37] = test: Dose normalized fAUC in rat at 2 mg/kg, po; format: ADME, organism-based; conditions: in vivo
[38] = Induction of phospholidosis in human HepG2 cells incubated overnight by […] in presence of fluorescent labeled phospholipid probe NBD-PE; format: cell-based; conditions: read-out: A50
[39] = Plasma clearance in rat at 1 mg/kg, iv or 2 mg/kg, po; format: ADME, organism-based
[40] = Oral bioavailability in rhesus monkey at 2 mg/kg; format: ADME, organism-based, Macaca mulatta; conditions: in vivo
[41] = target: Beta-3 adrenergic receptor (Canis lupus familiaris, UniProt O02662); test: Agonist activity at dog beta3 adrenergic receptor expressed in CHO cells assessed as accumulation of cAMP after 30 mins by TR-FRET assay; format: functional, cell-based
[42] = Intrinsic clearance in rat liver microsomes; format: ADME; conditions: read-out: CLH
Rhesus monkey [43] = test: Dose normalized total AUC in rhesus monkey at 2 mg/kg, po; format: ADME, organism-based, Macaca mulatta; conditions: in vivo
Rattus norvegicus [44] = test: Increase in detrusor muscle relaxation in iv infused Sprague-Dawley rat acetic acid-induced bladder hyperreflexia model assessed as increase in functional bladder capacity measured over 30 to 45 mins; format: organism-based
[45] = target: T2, Beta-3 adrenergic receptor; test: Agonist activity at rat beta3 adrenergic receptor expressed in CHO cells assessed as accumulation of cAMP after 30 mins by TR-FRET assay in presence of 40% serum; format: functional, cell-based
Canis familiaris [46] = test: Unbound clearance in dog at 0.5 mg/kg, iv or 2 mg/kg, po; format: ADME, organism-based, Canis lupus familiaris; conditions: in vivo
[47] = target: T1, Beta-3 adrenergic receptor; test: Agonist activity at human adrenergic beta3 receptor expressed in CHO cells assessed as accumulation of cAMP after 30 mins by TR-FRET assay in presence of 40% serum relative to (R)-(-)-isoproterenol; format: functional, cell-based
Target sequence in this assay (P13945 whole entry, looked up): as above

Rattus norvegicus [48] = test: Increase in detrusor muscle relaxation in iv infused Sprague-Dawley rat acetic acid-induced bladder hyperreflexia model assessed as decrease in micturition pressure measured over 30 to 45 mins; format: functional, organism-based
[49] = Half life in rhesus monkey at 0.5 mg/kg, iv or 2 mg/kg, po; format: ADME, organism-based, Macaca mulatta; conditions: in vivo

Sequence of Beta-3 adrenergic receptor (Rattus norvegicus) (P26255 whole entry): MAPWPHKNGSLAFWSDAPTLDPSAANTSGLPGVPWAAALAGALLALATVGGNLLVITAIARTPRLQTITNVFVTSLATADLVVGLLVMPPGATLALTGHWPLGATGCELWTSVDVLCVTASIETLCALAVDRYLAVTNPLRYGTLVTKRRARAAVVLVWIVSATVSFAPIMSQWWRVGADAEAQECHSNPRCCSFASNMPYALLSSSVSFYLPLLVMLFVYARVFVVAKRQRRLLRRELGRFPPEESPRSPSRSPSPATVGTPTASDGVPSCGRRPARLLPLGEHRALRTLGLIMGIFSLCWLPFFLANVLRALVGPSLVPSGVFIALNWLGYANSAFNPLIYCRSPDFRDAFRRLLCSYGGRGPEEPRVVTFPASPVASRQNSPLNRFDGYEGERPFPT
T2 sequence (P26255 whole entry): as above
Sequence of Sodium channel protein type 2 subunit alpha (Q99250 whole entry, looked up): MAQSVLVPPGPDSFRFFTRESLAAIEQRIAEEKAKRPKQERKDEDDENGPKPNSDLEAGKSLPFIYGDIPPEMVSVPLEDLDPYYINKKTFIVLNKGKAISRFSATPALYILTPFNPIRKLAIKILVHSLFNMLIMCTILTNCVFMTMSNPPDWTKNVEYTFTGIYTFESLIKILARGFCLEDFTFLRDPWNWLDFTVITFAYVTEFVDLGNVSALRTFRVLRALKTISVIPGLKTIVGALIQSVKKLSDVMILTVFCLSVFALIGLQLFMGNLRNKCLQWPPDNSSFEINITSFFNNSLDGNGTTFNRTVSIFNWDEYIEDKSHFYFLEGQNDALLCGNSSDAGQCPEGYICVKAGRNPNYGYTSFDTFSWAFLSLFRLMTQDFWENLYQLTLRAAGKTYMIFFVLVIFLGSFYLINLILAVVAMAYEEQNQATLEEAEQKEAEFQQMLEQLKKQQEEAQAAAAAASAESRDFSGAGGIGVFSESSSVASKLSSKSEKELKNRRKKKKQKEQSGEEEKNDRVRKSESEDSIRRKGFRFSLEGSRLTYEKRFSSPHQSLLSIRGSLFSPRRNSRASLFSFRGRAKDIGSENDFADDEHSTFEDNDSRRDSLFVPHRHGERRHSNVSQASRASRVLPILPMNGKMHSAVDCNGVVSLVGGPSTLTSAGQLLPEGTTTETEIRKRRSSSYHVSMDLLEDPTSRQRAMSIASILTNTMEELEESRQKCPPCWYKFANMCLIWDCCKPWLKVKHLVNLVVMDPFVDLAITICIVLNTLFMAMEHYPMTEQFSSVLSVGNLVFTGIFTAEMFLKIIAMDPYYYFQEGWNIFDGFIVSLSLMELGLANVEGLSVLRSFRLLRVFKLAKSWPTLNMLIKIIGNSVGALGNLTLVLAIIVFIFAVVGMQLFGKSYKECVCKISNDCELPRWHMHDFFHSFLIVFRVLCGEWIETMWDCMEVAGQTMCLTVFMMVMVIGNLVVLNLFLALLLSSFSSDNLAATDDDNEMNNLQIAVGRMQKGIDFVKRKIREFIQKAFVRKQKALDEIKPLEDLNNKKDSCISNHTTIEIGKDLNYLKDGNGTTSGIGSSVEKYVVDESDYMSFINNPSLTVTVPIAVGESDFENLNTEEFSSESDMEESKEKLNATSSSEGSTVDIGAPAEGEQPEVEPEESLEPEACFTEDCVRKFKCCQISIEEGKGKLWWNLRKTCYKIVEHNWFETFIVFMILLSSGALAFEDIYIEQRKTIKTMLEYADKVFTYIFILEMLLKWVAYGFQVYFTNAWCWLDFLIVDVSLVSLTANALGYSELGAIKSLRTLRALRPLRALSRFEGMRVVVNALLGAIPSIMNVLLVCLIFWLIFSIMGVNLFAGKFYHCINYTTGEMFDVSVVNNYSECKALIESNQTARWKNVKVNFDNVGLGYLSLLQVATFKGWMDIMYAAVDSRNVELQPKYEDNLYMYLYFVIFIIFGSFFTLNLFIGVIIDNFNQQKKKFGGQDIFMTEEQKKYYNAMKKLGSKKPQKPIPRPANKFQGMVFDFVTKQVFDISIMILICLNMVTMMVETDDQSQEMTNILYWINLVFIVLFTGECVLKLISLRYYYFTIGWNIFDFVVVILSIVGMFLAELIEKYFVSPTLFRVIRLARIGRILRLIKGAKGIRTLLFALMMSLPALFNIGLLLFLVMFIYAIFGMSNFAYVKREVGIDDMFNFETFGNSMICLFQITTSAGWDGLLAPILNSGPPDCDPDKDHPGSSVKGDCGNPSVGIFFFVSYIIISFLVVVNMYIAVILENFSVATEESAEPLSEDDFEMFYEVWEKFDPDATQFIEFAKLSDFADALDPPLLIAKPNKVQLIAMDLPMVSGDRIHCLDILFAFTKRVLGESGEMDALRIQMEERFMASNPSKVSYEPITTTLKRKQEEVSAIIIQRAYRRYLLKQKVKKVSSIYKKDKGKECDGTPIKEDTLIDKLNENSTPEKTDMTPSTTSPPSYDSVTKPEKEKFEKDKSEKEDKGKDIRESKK
Sequence of Beta-2 adrenergic receptor (P07550 whole entry): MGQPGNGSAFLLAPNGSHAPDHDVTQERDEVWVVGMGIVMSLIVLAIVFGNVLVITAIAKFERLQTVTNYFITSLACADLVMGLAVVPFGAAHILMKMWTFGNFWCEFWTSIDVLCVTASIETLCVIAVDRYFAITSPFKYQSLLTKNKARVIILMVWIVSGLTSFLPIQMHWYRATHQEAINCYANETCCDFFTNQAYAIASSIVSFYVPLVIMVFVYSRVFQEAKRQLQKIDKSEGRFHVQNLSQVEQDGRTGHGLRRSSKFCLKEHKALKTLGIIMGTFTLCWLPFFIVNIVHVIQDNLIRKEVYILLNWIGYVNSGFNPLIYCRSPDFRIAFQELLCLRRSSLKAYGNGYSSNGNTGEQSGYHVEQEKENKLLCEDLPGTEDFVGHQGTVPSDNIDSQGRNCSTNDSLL
Sequence of Beta-1 adrenergic receptor (P08588 whole entry): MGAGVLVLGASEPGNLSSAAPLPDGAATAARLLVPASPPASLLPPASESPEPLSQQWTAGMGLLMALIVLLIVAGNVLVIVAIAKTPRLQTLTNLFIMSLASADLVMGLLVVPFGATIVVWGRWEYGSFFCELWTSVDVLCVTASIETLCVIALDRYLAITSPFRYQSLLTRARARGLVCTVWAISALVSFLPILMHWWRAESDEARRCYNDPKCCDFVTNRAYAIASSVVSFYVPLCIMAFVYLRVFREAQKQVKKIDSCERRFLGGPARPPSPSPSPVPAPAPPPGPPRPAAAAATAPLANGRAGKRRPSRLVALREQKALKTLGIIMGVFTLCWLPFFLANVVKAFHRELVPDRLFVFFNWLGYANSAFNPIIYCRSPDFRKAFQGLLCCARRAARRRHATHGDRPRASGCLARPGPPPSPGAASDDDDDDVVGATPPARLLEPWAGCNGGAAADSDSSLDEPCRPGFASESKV
Sequence of Cytochrome P450 2C9 (P11712 whole entry): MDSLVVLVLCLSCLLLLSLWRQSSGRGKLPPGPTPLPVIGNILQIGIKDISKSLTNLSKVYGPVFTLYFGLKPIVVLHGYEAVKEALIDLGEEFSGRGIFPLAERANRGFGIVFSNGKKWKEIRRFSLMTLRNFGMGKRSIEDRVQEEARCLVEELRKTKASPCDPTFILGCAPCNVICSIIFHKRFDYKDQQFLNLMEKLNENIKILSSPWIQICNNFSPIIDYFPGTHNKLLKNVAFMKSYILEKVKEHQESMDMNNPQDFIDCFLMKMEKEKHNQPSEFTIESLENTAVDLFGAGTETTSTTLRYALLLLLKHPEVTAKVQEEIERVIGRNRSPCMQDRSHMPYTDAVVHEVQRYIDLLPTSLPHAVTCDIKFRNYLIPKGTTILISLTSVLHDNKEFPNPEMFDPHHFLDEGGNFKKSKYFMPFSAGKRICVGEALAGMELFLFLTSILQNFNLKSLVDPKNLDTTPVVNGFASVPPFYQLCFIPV
Sequence of Cytochrome P450 3A4 (P08684 whole entry): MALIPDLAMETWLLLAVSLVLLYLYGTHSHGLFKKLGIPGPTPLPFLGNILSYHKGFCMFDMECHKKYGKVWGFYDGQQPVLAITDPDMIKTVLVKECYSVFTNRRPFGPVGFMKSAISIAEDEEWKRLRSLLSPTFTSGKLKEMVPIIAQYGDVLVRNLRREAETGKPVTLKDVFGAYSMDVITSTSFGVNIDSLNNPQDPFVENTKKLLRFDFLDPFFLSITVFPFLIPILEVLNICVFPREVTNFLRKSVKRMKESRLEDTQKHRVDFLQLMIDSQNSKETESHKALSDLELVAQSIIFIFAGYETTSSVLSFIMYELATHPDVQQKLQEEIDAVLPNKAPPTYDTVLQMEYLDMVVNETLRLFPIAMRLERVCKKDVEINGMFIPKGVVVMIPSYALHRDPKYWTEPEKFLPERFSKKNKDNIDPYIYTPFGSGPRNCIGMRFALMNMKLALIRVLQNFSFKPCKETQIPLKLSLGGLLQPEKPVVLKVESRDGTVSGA

For `O=C(Cn1ncccc1=O)Nc1ccc(C[C@@H]2CC[C@H]([C@H](O)c3ccccc3)N2)cc1`, the max activation [1] was 91%, the IC50 [2] was over 30000 nM and the IC50 [3] was 4400 nM. It also gave a remaining at 24 h [4] of 95%, a remaining at 24 h [5] of 26% and an IC50 [6] of over 20000 nM. For the same compound, the max activation [7] was 99%, the max activation [8] was 105% and the CL free (Rhesus monkey [9]) was 33 mL/min/kg. For the same compound, the max activation [10] was 79%, the CL free (Rattus norvegicus [11]) was 148 mL/min/kg and the fraction unbound [12] was 0.27. For the same compound, the IC50 (Cytochrome P450 2D6) was over 100000 nM, the half-life [13] was 5 h and the clearance [14] was 21 mL/min/kg. It also gave a fraction unbound [15] of 0.63, an IC50 [16] of over 20000 nM and a CLint scaled [17] of under 10 mL/min/kg. For the same compound, the IC50 [18] was over 30000 nM, the remaining at 24 h [19] was 95% and the fAUC/dose (Canis familiaris [20]) was 612 nM·h/mg/kg. For the same compound, the half-life [21] was 8 h, the EC50 [22] was 4.8 nM and the remaining at 24 h [23] was 100%. It also gave an AUC/dose (Canis familiaris [24]) of 1200 nM·h/mg/kg, a CLint scaled [25] of 11 mL/min/kg and an IC50 (Cytochrome P450 2C9) of over 100000 nM. For the same compound, the AUC/dose (Rattus norvegicus [26]) was 66 nM·h/mg/kg, the EC50 [27] was 5.9 nM and the EC50 [28] was 3.5 nM. It also gave a bioavailability [29] of 14%, a fraction unbound [30] of 0.51 and an IC50 (Cytochrome P450 3A4) of over 100000 nM. The clearance [31] was 7.4 mL/min/kg, the CLint scaled [32] was under 10 mL/min/kg and the EC50 [33] was 615 nM. The logD [34] was 1, the fAUC/dose (Rhesus monkey [35]) was 517 nM·h/mg/kg and the bioavailability [36] was 18%. It also gave a fAUC/dose (Rattus norvegicus [37]) of 17 nM·h/mg/kg, an AC50 [38] of 67000 nM and a clearance [39] of 40 mL/min/kg. For the same compound, the bioavailability [40] was 46%, the EC50 [41] was 47 nM and the CLint scaled [42] was under 15 mL/min/kg. For the same compound, the AUC/dose (Rhesus monkey [43]) was 820 nM·h/mg/kg, the Activity (Rattus norvegicus [44]) was “Dose-dependent effect” and the EC50 [45] was 1060 nM. The CL free (Canis familiaris [46]) was 15 mL/min/kg, the max activation [47] was 96% and the Activity (Rattus norvegicus [48]) was “Dose-dependent effect”. The half-life [49] was 9 h.
